The text below walks through data of patent US6750220B2, “Amine salt of an integrin receptor antagonist” (Merck & Co., Inc., priority 2001, dated 2004).

SMILES strings stand for the structures. Structures can show the parent of a compound that is named as a salt.

This series can be described thus: solubility in water. The series is classed as physicochemical. To be noted: compared with the parent zwitterionic compound of structural formula IV.

Consider `O=C(O)CC(CCCCCCc1ccc2c(n1)NCCC2)c1cncnc1` (stereo not shown) [TRIS salt, tris(hydroxymethyl)aminomethyl (“TRIS”) salt of 3-(pyrimidin-5-yl)-9-(5,6,7,8-tetrahydro-[1,8]-naphthyridin-2-yl)-nonanoic acid], for which the solubility in water result is reported as “greater solubility in water than the parent zwitterionic compound”.
